Measured values published in PubChem BioAssay (NCI).
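Five compound concentrations were applied to cells in 96-well plates for 48 hours; endpoints were derived by simple linear interpolation of the resulting dose-response curve. Definition used: TGI = concentration required for complete inhibition of growth.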

What was measured:
Assay in all cases: NCI-60 cell line screen, 48 h
CCRF-CEM leukemia = system: CCRF-CEM leukemia
SK-MEL-2 melanoma = system: SK-MEL-2 melanoma
BT-549 breast = system: BT-549 breast
SF-539 CNS = system: SF-539 CNS
NCI-H460 lung = system: NCI-H460 lung
SK-MEL-28 melanoma = system: SK-MEL-28 melanoma
KM12 colon = system: KM12 colon
HCT-116 colon = system: HCT-116 colon
HL-60(TB) leukemia = system: HL-60(TB) leukemia
OVCAR-5 ovarian = system: OVCAR-5 ovarian
MOLT-4 leukemia = system: MOLT-4 leukemia
DU-145 prostate = system: DU-145 prostate
PC-3 prostate = system: PC-3 prostate
HCT-15 colon = system: HCT-15 colon
NCI-H23 lung = system: NCI-H23 lung
MDA-N = system: MDA-N
NCI-H226 lung = system: NCI-H226 lung
COLO 205 colon = system: COLO 205 colon
SR leukemia = system: SR leukemia
A498 renal = system: A498 renal
SF-268 CNS = system: SF-268 CNS
EKVX NSCLC = system: EKVX NSCLC
M14 melanoma = system: M14 melanoma
MDA-MB-231 breast = system: MDA-MB-231 breast
ACHN renal = system: ACHN renal
CAKI-1 renal = system: CAKI-1 renal
SW-620 colon = system: SW-620 colon
NCI-H522 lung = system: NCI-H522 lung
A549 NSCLC = system: A549 NSCLC
SN12C renal = system: SN12C renal
RXF 393 renal = system: RXF 393 renal
SNB-19 CNS = system: SNB-19 CNS
NCI/ADR-RES ovarian = system: NCI/ADR-RES ovarian
MCF7 breast = system: MCF7 breast
OVCAR-8 ovarian = system: OVCAR-8 ovarian
IGROV1 ovarian = system: IGROV1 ovarian
U251 CNS = system: U251 CNS
OVCAR-3 ovarian = system: OVCAR-3 ovarian
SF-295 CNS = system: SF-295 CNS
HOP-92 NSCLC = system: HOP-92 NSCLC
SK-MEL-5 melanoma = system: SK-MEL-5 melanoma
HOP-62 NSCLC = system: HOP-62 NSCLC
HS 578T breast = system: HS 578T breast
UO-31 renal = system: UO-31 renal
786-0 renal = system: 786-0 renal
T-47D breast = system: T-47D breast
SNB-75 CNS = system: SNB-75 CNS
HCC-2998 colon = system: HCC-2998 colon
UACC-257 melanoma = system: UACC-257 melanoma
RPMI-8226 leukemia = system: RPMI-8226 leukemia
OVCAR-4 ovarian = system: OVCAR-4 ovarian
HT29 colon = system: HT29 colon
UACC-62 melanoma = system: UACC-62 melanoma
TK-10 renal = system: TK-10 renal
MALME-3M melanoma = system: MALME-3M melanoma
MDA-MB-435 = system: MDA-MB-435
LOX IMVI melanoma = system: LOX IMVI melanoma
K-562 leukemia = system: K-562 leukemia
SK-OV-3 ovarian = system: SK-OV-3 ovarian

Measured: TGI

O=c1[nH]c(=O)n(C/C=C/CO)nc1Br
not listed: K-562 leukemia | SK-OV-3 ovarian
> 100 µM: all other assays above

CC(C)C[C@H]1[C@@H](OCc2ccccc2)COS(=O)(=O)N1[C@H](C)c1ccccc1
> 83.7 µM: SR leukemia
> 69.7 µM: HL-60(TB) leukemia
> 64.4 µM: SK-MEL-5 melanoma
39.7 µM: T-47D breast
> 67.7 µM: U251 CNS
> 74.7 µM: MOLT-4 leukemia | RPMI-8226 leukemia
> 100 µM: all other assays above

O=C1CSC(c2ccccc2)N1c1nc2cc3sc(N4C(=O)CSC4c4ccccc4)nc3cc2s1 (stereo not drawn)
> 84.1 µM: CCRF-CEM leukemia
15.6 µM: SF-539 CNS
> 26.9 µM: COLO 205 colon
> 92.3 µM: SNB-75 CNS
> 96.6 µM: NCI-H226 lung
> 100 µM: all other assays above

Cc1c(N=Nc2ccccc2)c(-c2ccccc2)n(C2OC(CO)C(O)C(O)C2O)c(=S)c1C#N (stereo not drawn)
27.8 µM: SNB-19 CNS
21.8 µM: SK-MEL-2 melanoma
55.8 µM: SF-295 CNS
32.5 µM: A498 renal
10.3 µM: RXF 393 renal
21.5 µM: A549 NSCLC
28.5 µM: NCI-H226 lung | SN12C renal
46.6 µM: NCI/ADR-RES ovarian
14.1 µM: NCI-H522 lung
24.2 µM: SW-620 colon
20.1 µM: MDA-N
17.7 µM: U251 CNS
25.5 µM: HCT-15 colon
16.2 µM: NCI-H23 lung
28.9 µM: OVCAR-5 ovarian
23 µM: SK-OV-3 ovarian
11.6 µM: KM12 colon
31.3 µM: COLO 205 colon
41.7 µM: DU-145 prostate
19.5 µM: MDA-MB-435
44.4 µM: MDA-MB-231 breast
13 µM: UACC-62 melanoma
29.7 µM: HT29 colon
24.5 µM: MOLT-4 leukemia
22.5 µM: IGROV1 ovarian
19.3 µM: M14 melanoma
37 µM: SF-268 CNS
30.9 µM: HCC-2998 colon
23.2 µM: HOP-62 NSCLC
18 µM: OVCAR-3 ovarian
17.1 µM: MCF7 breast
19.6 µM: SK-MEL-28 melanoma
42.5 µM: EKVX NSCLC
30.6 µM: MALME-3M melanoma
> 100 µM: K-562 leukemia | BT-549 breast | HL-60(TB) leukemia | SR leukemia | OVCAR-8 ovarian | HS 578T breast | SNB-75 CNS | RPMI-8226 leukemia
26.9 µM: TK-10 renal
15.6 µM: PC-3 prostate
4.74 µM: T-47D breast
39.4 µM: UO-31 renal
97.6 µM: NCI-H460 lung
18.8 µM: ACHN renal | 786-0 renal
12.4 µM: LOX IMVI melanoma
26.1 µM: OVCAR-4 ovarian
20.6 µM: SF-539 CNS
